Converted amounts (≈) assume the structure as drawn.
How the values were obtained:
Type in all cases: functional
Staphylococcus aureus [1] = experiment: Antibacterial activity against rifamycin-resistant Staphylococcus aureus CB370 with rpoB His481Tyr mutation
Staphylococcus aureus [2] = experiment: Antibacterial activity against intermediate rifamycin-resistant Staphylococcus aureus CB372 with rpoB Asp471Tyr mutation
Staphylococcus aureus [3] = experiment: Antibacterial activity against rifamycin-sensitive Staphylococcus aureus CB190
Staphylococcus aureus [4] = experiment: Antibacterial activity against Staphylococcus aureus ATCC 6538 induced-septicemia in sc dosed mouse; details: ATCC 6538, sc
Staphylococcus aureus [5] = experiment: Antibacterial activity against Staphylococcus aureus ATCC 6538 induced-septicemia in po dosed mouse; details: ATCC 6538, po

Structure (SMILES)	MIC (Staphylococcus aureus [1])	MIC (Staphylococcus aureus [2])	MIC (Staphylococcus aureus [3])	ED50 (Staphylococcus aureus [4])	ED50 (Staphylococcus aureus [5])
CO[C@H]1/C=C/O[C@@]2(C)Oc3c(C)c(O)c4c(c3C2=O)C2=NC3(CCN(C)C3)CNC2=C(NC(=O)/C(C)=C\C=C\[C@H](C)[C@H](O)[C@@H](C)[C@@H](O)[C@@H](C)[C@H](OC(C)=O)[C@@H]1C)C4=O (some centres undefined)	> 62.5 µg/mL	0.98 µg/mL (≈ 1.22 µM)	0.013 µg/mL (≈ 0.0162 µM)	–	–
CO[C@H]1/C=C/O[C@@]2(C)Oc3c(C)c(O)c4c(c3C2=O)C2=NC3(CCN(Cc5cnc6ccccc6c5)C3)CNC2=C(NC(=O)/C(C)=C\C=C\[C@H](C)[C@H](O)[C@@H](C)[C@@H](O)[C@@H](C)[C@H](OC(C)=O)[C@@H]1C)C4=O (some centres undefined)	> 62.5 µg/mL	7.81 µg/mL (≈ 8.38 µM)	0.063 µg/mL (≈ 0.0676 µM)	–	–
CO[C@H]1/C=C/O[C@@]2(C)Oc3c(C)c(O)c4c(c3C2=O)C2=NC3(CCN(C(=O)OC(C)(C)C)CC3)CNC2=C(NC(=O)/C(C)=C\C=C\[C@H](C)[C@H](O)[C@@H](C)[C@@H](O)[C@@H](C)[C@H](OC(C)=O)[C@@H]1C)C4=O	> 62.5 µg/mL	7.81 µg/mL (≈ 8.63 µM)	0.026 µg/mL (≈ 0.0287 µM)	–	–
CO[C@H]1/C=C/O[C@@]2(C)Oc3c(C)c(O)c4c(c3C2=O)C2=NC3(CCN(CC(C)C)CC3)CNC2=C(NC(=O)/C(C)=C\C=C\[C@H](C)[C@H](O)[C@@H](C)[C@@H](O)[C@@H](C)[C@H](OC(C)=O)[C@@H]1C)C4=O	> 62.5 µg/mL	7.81 µg/mL (≈ 9.07 µM)	0.063 µg/mL (≈ 0.0732 µM)	0.6 mg/kg	< 0.1 mg/kg
CO[C@H]1/C=C/O[C@@]2(C)Oc3c(C)c(O)c4c(c3C2=O)C2=NC3(CCN(Cc5cnc6ccccc6c5)CC3)CNC2=C(NC(=O)/C(C)=C\C=C\[C@H](C)[C@H](O)[C@@H](C)[C@@H](O)[C@@H](C)[C@H](OC(C)=O)[C@@H]1C)C4=O	15.6 µg/mL (≈ 16.5 µM)	0.98 µg/mL (≈ 1.04 µM)	0.063 µg/mL (≈ 0.0666 µM)	0.6 mg/kg	5 mg/kg
CO[C@H]1/C=C/O[C@@]2(C)Oc3c(C)c(O)c4c(c3C2=O)C2=NC3(CCN(CC(C)C)C3)CNC2=C(NC(=O)/C(C)=C\C=C\[C@H](C)[C@H](O)[C@@H](C)[C@@H](O)[C@@H](C)[C@H](OC(C)=O)[C@@H]1C)C4=O (some centres undefined)	31.3 µg/mL (≈ 37 µM)	> 62.5 µg/mL	0.063 µg/mL (≈ 0.0744 µM)	–	–
CO[C@H]1/C=C/O[C@@]2(C)Oc3c(C)c(O)c4c(c3C2=O)C2=NC3(CCN(C)CC3)CNC2=C(NC(=O)/C(C)=C\C=C\[C@H](C)[C@H](O)[C@@H](C)[C@@H](O)[C@@H](C)[C@H](OC(C)=O)[C@@H]1C)C4=O	> 62.5 µg/mL	1.95 µg/mL (≈ 2.38 µM)	0.016 µg/mL (≈ 0.0195 µM)	0.3 mg/kg	> 10 mg/kg
CO[C@H]1/C=C/O[C@@]2(C)Oc3c(C)c(O)c4c(c3C2=O)C2=NC3(CCN(Cc5ccccc5)CC3)CNC2=C(NC(=O)/C(C)=C\C=C\[C@H](C)[C@H](O)[C@@H](C)[C@@H](O)[C@@H](C)[C@H](OC(C)=O)[C@@H]1C)C4=O	32 µg/mL (≈ 35.8 µM)	1.95 µg/mL (≈ 2.18 µM)	0.003 µg/mL (≈ 0.00335 µM)	–	–
C=CCN1CCC2(CC1)CNC1=C3NC(=O)/C(C)=C\C=C\[C@H](C)[C@H](O)[C@@H](C)[C@@H](O)[C@@H](C)[C@H](OC(C)=O)[C@H](C)[C@@H](OC)/C=C/O[C@@]4(C)Oc5c(C)c(O)c(c(c5C4=O)C1=N2)C3=O	> 62.5 µg/mL	15.6 µg/mL (≈ 18.5 µM)	0.006 µg/mL (≈ 0.0071 µM)	–	–
CO[C@H]1/C=C/O[C@@]2(C)Oc3c(C)c(O)c4c(c3C2=O)C2=NC3(CCN(C(=O)OC(C)(C)C)C3)CNC2=C(NC(=O)/C(C)=C\C=C\[C@H](C)[C@H](O)[C@@H](C)[C@@H](O)[C@@H](C)[C@H](OC(C)=O)[C@@H]1C)C4=O (some centres undefined)	> 62.5 µg/mL	7.81 µg/mL (≈ 8.77 µM)	0.016 µg/mL (≈ 0.018 µM)	–	–
CO[C@H]1/C=C/O[C@@]2(C)Oc3c(C)c(O)c4c(c3C2=O)C2=NC3(CCN(Cc5ccccc5)C3)CNC2=C(NC(=O)/C(C)=C\C=C\[C@H](C)[C@H](O)[C@@H](C)[C@@H](O)[C@@H](C)[C@H](OC(C)=O)[C@@H]1C)C4=O (some centres undefined)	> 62.5 µg/mL	3.91 µg/mL (≈ 4.44 µM)	0.031 µg/mL (≈ 0.0352 µM)	–	–
CO[C@H]1/C=C/O[C@@]2(C)Oc3c(C)c(O)c4c(c3C2=O)C2=NC3(CCN(CC(C)C)CC3)NC2=C(NC(=O)/C(C)=C\C=C\[C@H](C)[C@H](O)[C@@H](C)[C@@H](O)[C@@H](C)[C@H](OC(C)=O)[C@@H]1C)C4=O [RIFABUTIN]	> 62.5 µg/mL	15.6 µg/mL (≈ 18.4 µM)	0.031 µg/mL (≈ 0.0366 µM)	< 0.1 mg/kg	0.6 mg/kg

Reference: ChEMBL document CHEMBL1148838, “Synthesis and antibacterial evaluation of a novel series of rifabutin-like spirorifamycins” (2007)
